This is an account of results in US20120071427A1, “NOVEL ANTIDIABETIC FUROSTANOLIC SAPONIN RICH (FSR) FRACTION FROM FENUGREEK SEEDS” (priority 2009, published 2012).

For the assay, the system named is Type-1 diabetic rats. Description: Chronic administration, plasma glucose level in Type-1 diabetic rats. Type of assay: in vivo. To be noted: for PGL: INS 1 U/kg i.p. once daily; for % PGL Reduction: INS 1 U/kg i.p., vs respective vehicle control group. On the procedure:
Experimental studies were performed in animal models (rats) to determine anti-diabetic potential if any (Type 1 and Type 2) of the novel fraction isolated from fenugreek seeds (>70% furostanolic saponins with approximately 30% protodioscin as one of the major fractions).

Regarding Insulin, the PGL reads like this: (0 d) 527.98 ± 50.31 mg/dL; (7 d) 218.33 ± 16.87 mg/dL; (14 d) 260.65 ± 22.96 mg/dL. The “% PGL Reduction” value runs as follows: (7 d) “(56.3%)”; (14 d) “(48.2%)”; (14 d, listed as insulin) 48.2%.
